Reference: US11312727B1, “Macrocyclic flu endonuclease inhibitors” (Janssen BioPharma, Inc., priority 2018, dated 2022)
pEC50, pIC50: −log10 of the molar value. Read-outs that look alike come from different tables or passages of the source.

Experiments:
[1] = system: Influenza strain A549 A/WSN/33 (H1N1); test: microbe, parasite or virus in culture; assay type: cell-based; conditions: A549 cells, influenza A/WSN/33 (H1N1), 20 hours incubation, read-out: A549_A(H1N1) EC50
[2] = system: Human lung carcinoma A549 cells; conditions: uninfected A549 cells, CellTiter-Glo
[3] = molecular target: EN PA (full length recombinant PA endonuclease) (Influenza A virus (strain A/Wilson-Smith/1933 H1N1) (Influenza A virus (strain A/WS/1933 H1N1)), UniProt P15659); test: biochemical; conditions: full length EN PA 1 to 10 nM, 50 nM FRET probe; mean of a minimum of two independent experiments; read-out: FRET_ _IC50
in vitro = conditions: human, CC50, uninfected A549 cells, CellTiter-Glo

Molecule O=C1c2c(OCc3ccccc3)c(=O)ccn2N2CN1CC=CCOc1ccccc1C2c1ccccn1 (stereo not drawn) has a ring closure, yield of all isomers (from C=CCOc1ccccc1C(c1ccccn1)N1CN(CC=C)C(=O)c2c(OCc3ccccc3)c(=O)ccn21, rcm bond, Hoveyda-Grubbs catalyst 2nd generation, DCE, 14.6 mM, 80.0 °C, 2.0 h) of 9.7%.
O=C1c2c(OCc3ccccc3)c(=O)ccn2N2CN1CC=CCOc1ccccc1C2c1ccccc1 (stereo not drawn) gave a ring closure, yield of all isomers (from C=CCOc1ccccc1C(c1ccccc1)N1CN(CC=C)C(=O)c2c(OCc3ccccc3)c(=O)ccn21, rcm bond, Hoveyda-Grubbs 2nd generation, DCE, […], 80.0 °C, 2.0 h) of 21.4%.
O=C1c2c(O)c(=O)ccn2N2CN1C/C=C\CCc1ccccc1C2c1ccncc1 (single isomer, unassigned) [Compound 52A, (16*R,*Z)-4-hydroxy-16-(pyridin-4-yl)-7,10,11,16-tetrahydro-6,17-methanobenzo[k]pyrido[1,2-b][1,2,5]triazacyclotridecine-3,5-dione] showed a pEC50 [1] of under 6.00 and a CC50 [2] of over 2000 nM.
Molecule O=C1c2c(O)c(=O)ccn2N2CN1C/C=C/CCc1ccccc1C2c1cccc(F)n1 (single isomer, unassigned) [Compound 78A, (16*R,E)-16-(6-fluoropyridin-2-yl)-4-hydroxy-7,10,11,16-tetrahydro-6,17-methanobenzo[k]pyrido[1,2-b][1,2,5]triazacyclotridecine-3,5-dione] has a pEC50 [1] of 7.72 and a CC50 [2] of over 1000 nM.
With O=C1CCN2CN(C(c3ccccc3)c3ccccc3CN1)n1ccc(=O)c(OCc3ccccc3)c1C2=O (stereo not drawn) the ring closure, yield of all isomers (from NCc1ccccc1C(c1ccccc1)N1CN(CCC(=O)O)C(=O)c2c(OCc3ccccc3)c(=O)ccn21, amide bond, HATU, DMF, […], 80.0 °C) was 51.7%.
O=C1c2c(O)c(=O)ccn2N2CN1CCCCCOc1cccc3c1[C@H]2c1ccccc1SC3 (single isomer, unassigned) [Compound 69B, (23b*S)-6-hydroxy-10,11,12,13,18,23b-hexahydro-9H-1,8-methano[1]benzothiepino[5,4,3-lm]pyrido[2,1-i][1,7,10,11]benzoxatriazacyclotetradecine-5,7-dione] showed a pEC50 [1] of 7.57 and a CC50 [2] of over 2000 nM.
With O=C1c2c(OCc3ccccc3)c(=O)ccn2N2CN1CC1CC1COc1ccccc1C2c1ccccc1 (stereo not drawn) the ring closure, yield of all isomers (from O=C1c2c(OCc3ccccc3)c(=O)ccn2N(C(c2ccccc2)c2ccccc2O)CN1CC1CC1CBr, ether bond, K2CO3, CH3CN, 44.8 mM, […], 0.5 h) was 55.8%.
In the case of O=C1c2c(OCc3ccccc3)c(=O)ccn2N2CN1CC=CCOc1cccc3c1C2c1ccccc1SC3 (stereo not drawn), the ring closure, yield of all isomers (from C=CCOc1cccc2c1C(N1CN(CC=C)C(=O)c3c(OCc4ccccc4)c(=O)ccn31)c1ccccc1SC2, rcm bond, Hoveyda-Grubbs catalyst 2nd generation, DCE, 16.04 mM, 80.0 °C, […]) was 15%.
In the case of O=C1c2c(OCc3ccccc3)c(=O)ccn2N2CN1CCC=CCOc1cccc3c1C2c1ccccc1SC3 (stereo not drawn), the ring closure, yield of all isomers (from C=CCCN1CN(C2c3ccccc3SCc3cccc(OCC=C)c32)n2ccc(=O)c(OCc3ccccc3)c2C1=O, rcm bond, Hoveyda-Grubbs catalyst 2nd generation, DCE, 13.86 mM, 80.0 °C, […]) was 19.8%.
O=C1c2c(O)c(=O)ccn2N2CN1C/C=C/CCc1c(F)cccc1C2c1cccc(F)n1 (single isomer, unassigned) [Compound 76A, (16*R,E)-12-fluoro-16-(6-fluoropyridin-2-yl)-4-hydroxy-7,10,11,16-tetrahydro-6,17-methanobenzo[k]pyrido[1,2-b][1,2,5]triazacyclotridecine-3,5-dione] showed a pEC50 [1] of 5.45 and a CC50 [2] of 43900 nM.
For O=C1c2c(O)c(=O)ccn2N2CN1C/C=C\CCc1ccccc1C2c1ccncc1 (single isomer, unassigned) [Compound 52B, (16*S,*Z)-4-hydroxy-16-(pyridin-4-yl)-7,10,11,16-tetrahydro-6,17-methanobenzo[k]pyrido[1,2-b][1,2,5]triazacyclotridecine-3,5-dione], the pEC50 [1] was 7.08 and the CC50 [2] was over 2000 nM.
Work on O=C1c2c(OCc3ccccc3)c(=O)ccn2N2CN1CC=CCCOc1cccc(c1)C2c1ccccc1 (stereo not drawn) yielded a ring closure, yield of all isomers (from C=CCCOc1cccc(C(c2ccccc2)N2CN(CC=C)C(=O)c3c(OCc4ccccc4)c(=O)ccn32)c1, rcm bond, Hoveyda-Grubbs 2nd generation, DCE, 12.1 mM, 90.0 °C, […]) of 8.9%.
With O=C1c2c(O)c(=O)ccn2N2CN1CCCCCOc1cccc3c1[C@@H]2c1ccccc1SC3 (single isomer, unassigned) [Compound 69A, (23b*R)-6-hydroxy-10,11,12,13,18,23b-hexahydro-9H-1,8-methano[1]benzothiepino[5,4,3-lm]pyrido[2,1-i][1,7,10,11]benzoxatriazacyclotetradecine-5,7-dione] the pEC50 [1] was under 6.00 and the CC50 [2] was over 2000 nM.
In the case of O=C1c2c(OCc3ccccc3)c(=O)ccn2N2CN1C1(C=CCOc3c(ccc(F)c3F)C2c2ccccc2)CCC1 (stereo not drawn), the ring closure, yield of all isomers (from C=CCOc1c(C(c2ccccc2)N2CN(C3(C=C)CCC3)C(=O)c3c(OCc4ccccc4)c(=O)ccn32)ccc(F)c1F, rcm bond, Hoveyda-Grubbs II, dichloroethane, 12.05 mM, 100.0 °C, 6.0 h) was 40.7%.
Work on CC1CCCCc2ccccc2C(c2ccccc2)N2CN1C(=O)c1c(O)c(=O)ccn12 (stereo not drawn) [Compound 13, 4-hydroxy-7-methyl-15-phenyl-8,9,10,15-tetrahydro-7H-6,16-methanobenzo[j]pyrido[1,2-b][1,2,5]triazacyclododecine-3,5-dione] yielded a pIC50 [3] of 7.34, a pEC50 ([1]; Influenza A virus, A549, 20 h) of 7.72 and a CC50 (in vitro) of over 2000 nM.
Molecule O=C1c2c(OCc3ccccc3)c(=O)ccn2N2CN1CCC=CCc1ccccc1C2c1ccccc1 (stereo not drawn) has a ring closure, yield of all isomers (from C=CCCN1CN(C(c2ccccc2)c2ccccc2CC=C)n2ccc(=O)c(OCc3ccccc3)c2C1=O, rcm bond, Hoveyda-Grubbs 2nd generation, DCE, 12.7 mM, 80.0 °C, 3.0 h) of 69.2%.
With CCC1C=CCOc2ccccc2C(c2ccccc2)N2CN1C(=O)c1c(OCc3ccccc3)c(=O)ccn12 (stereo not drawn) the ring closure, yield of all isomers (from C=CCOc1ccccc1C(c1ccccc1)N1CN(C(C=C)CC)C(=O)c2c(OCc3ccccc3)c(=O)ccn21, rcm bond, Hoveyda-Grubbs catalyst 2nd generation, DCE, […], 80.0 °C, 2.0 h) was 62.5%.
In the case of O=C1c2c(O)c(=O)ccn2N2CN1C/C=C/CCc1c(F)cccc1C2c1cccc(F)n1 (single isomer, unassigned) [Compound 76B, (16*S,E)-12-fluoro-16-(6-fluoropyridin-2-yl)-4-hydroxy-7,10,11,16-tetrahydro-6,17-methanobenzo[k]pyrido[1,2-b][1,2,5]triazacyclotridecine-3,5-dione], the pEC50 [1] was 8.22 and the CC50 [2] was over 200 nM.
O=C1c2c(OCc3ccccc3)c(=O)ccn2N2CN1CC=CCOc1c(F)cccc1C2c1cccc(F)c1 (stereo not drawn) showed a ring closure, yield of all isomers (from C=CCOc1c(F)cccc1C(c1cccc(F)c1)N1CN(CC=C)C(=O)c2c(OCc3ccccc3)c(=O)ccn21, rcm bond, Hoveyda-Grubbs second generation catalyst, DCE, 19.6 mM, 80.0 °C, 2.0 h) of 13.6%.
With O=C1c2c(O)c(=O)ccn2N2CN1CCCC/C=C\c1cccc3c1[C@@H]2c1ccccc1CC3 (single isomer, unassigned) [Compound 86B, (13*Z,23b*R)-6-hydroxy-10,11,12,18,19,23b-hexahydro-9H-1,8-methanobenzo[4,5]cyclohepta[1,2,3-qr]pyrido[1,2-c][2,3,6]benzotriazacyclotetradecine-5,7-dione] the pEC50 ([1]; Influenza A virus, A549, 20 h) was 7.57 and the CC50 (in vitro) was over 2000 nM.
O=C1c2c(O)c(=O)ccn2N2CN1C/C=C\CCOc1ccccc1C2c1ccccc1 (stereo not drawn) [Compound 19, (*Z)-15-hydroxy-2-phenyl-12,13,14,16-tetrahydro-11H-4-oxa-1(1,3)-pyrido[2,1-f][1,2,4]triazina-3(1,2)-benzenacyclononaphan-7-ene-14,16-dione] gave a pEC50 ([1]; Influenza A virus, A549, 20 h) of 6.59 and a CC50 (in vitro) of over 2000 nM.
Work on O=C1c2c(O)c(=O)ccn2N2CN1[C@@H]1C[C@@H]1CCOc1cccc3c1[C@@H]2c1ccccc1SC3 (stereo in doubt) [Compound 166A, cis-(11a*RS,12a*RS,13S,20a*R)-15-hydroxy-6,11,11a,12,12a,20a-hexahydro-10H-7,8-(epiprop[1]en[1]yl[3]ylidene)-13,20-methanobenzo[6,7]thiepino[4,5-c]cyclopropa[j]pyrido[1,2-f][1]oxa[5,6,9]triazacyclotridecine-14,16-dione] yielded a pEC50 ([1]; Influenza A virus, A549, 20 h) of under 7.30 and a CC50 (in vitro) of over 100 nM.
For CC[C@@H]1/C=C/COc2cccc3c2[C@H](c2ccccc2SC3)N2CN1C(=O)c1c(O)c(=O)ccn12 [Compound 92AB, (9R,17aR,E)-9-ethyl-12-hydroxy-2,6,9,17a-tetrahydro-3,4-(epiprop[1]en[1]yl[3]ylidene)-10,17-methanobenzo[6,7]thiepino[4,5-c]pyrido[1,2-f][1]oxa[5,6,9]triazacyclotridecine-11,13-dione], the pEC50 ([1]; Influenza A virus, A549, 20 h) was under 6.30 and the CC50 (in vitro) was over 1000 nM.
